According to US7648967B2, “Mutagenic nucleoside analogs for the treatment of viral disease” (priority 2001, dated 2010):
Where two headings read alike, the source gives them in different places.

How the values were obtained:
BVDV [1] = test: Sequencing of BVDV glycoprotein fragment for viral mutagenesis; assay type: cell-based, bovine viral diarrhea virus; conditions: 2 mM, passage 1, BVDV glycoprotein fragment, vs DMSO control
Method: Fragment of 1 kb glycoprotein gene of clones BVDV at passage 1, BVDV treated with 2 mM 5-formyl-uridine vs. DMSO control.
(§1) For 5-formyl-uridine, sequencing was performed to confirm that viral extinction was due to viral mutagenesis by the nucleoside. Clones of MV were selected from treated and control virus at passage 4 and a 1 kb fragment of the matrix and a 1.7 kb fragment of the polymerase were sequenced. […] A fragment of the BVDV glycoprotein was also sequenced, in which the BVDV virus was treated with 2 mM 5-formyl-uridine.

BVDV [2] = test: Antiviral activity against BVDV by passaging virus in BT cells (CPE and viral titer); assay type: cell-based, bovine viral diarrhea virus; conditions: for viral replication: after a single passage
Method: (§2) Cytotoxicity was assayed using graded amounts of nucleoside analog in CV-1 cells or BT cells. 100 pfu of virus was inoculated in 10^5 CV-1 cells (MV) or BT cells (BVDV). Antiviral activity against MV or BVDV (an HCV surrogate) was tested by passaging the virus in the presence or absence of analog.
(§3) In screening experiments, replication of MV or BVDV was assessed by cytopathic effect (CPE) and viral titer after growth in cells for three to four days in the presence or absence of drug. […] Experiments were performed in triplicate (see FIGS. 2 and 4).

measles virus (MV) [3] = test: Antiviral activity against MV by passaging virus in CV-1 cells (CPE and viral titer); assay type: cell-based
Method: as §2, §3

CV-1 cells or BT cells = test: Cytotoxicity with graded amounts of nucleoside analog; assay type: cell-based; conditions: Cercopithecidae, cell line (CV-1 or BT) not specified
Method: as §2

measles virus (MV) [4] = test: Sequencing of MV clones (matrix and polymerase fragments) for viral mutagenesis; assay type: cell-based; conditions: 0.15 mM, passage 4, 1 kb matrix and 1.7 kb polymerase fragments, vs DMSO control
Method: Fragment of 1 kb of matrix gene and 1.7 kb of polymerase of cones MV at passage 4, MV treated with 0.15 mM 5-formyl uridine vs. DMSO control.
as §1

[5] = Bovine viral diarrhea virus isolates and strains
[6] = concentration of 0.5 mM, within one passage

Structure (SMILES)	increase in mutation (BVDV [1])	EC50 (BVDV [2]; [5])	EC90 (BVDV [2]; [5])	inhibition of BVDV replication (BVDV [2]; [6])	EC50 (measles virus (MV) [3]; Measles morbillivirus, CV-1)	EC90 (measles virus (MV) [3]; Measles morbillivirus, CV-1)	inhibition of MV replication (measles virus (MV) [3]; [6])	IC50 (CV-1 cells or BT cells)	mutation rate above the spontaneous mutation rate of MV (measles virus (MV) [4])	viral replication (BVDV [2]; BVDV)	EC50 (BVDV [2]; BVDV, read-out: EC50)
O=Cc1cn([C@@H]2O[C@H](CO)[C@@H](O)[C@H]2O)c(=O)[nH]c1=O [5-formyl-uridine]	3.75 fold	150 µM	400 µM	completely inhibited	150 µM	300 µM	completely inhibited	> 1000 µM	1.6 fold	–	–
Nc1nc(N)c2ncn([C@@H]3O[C@H](CO)[C@@H](O)[C@H]3O)c2n1 [2,6 diaminopurine riboside]	–	–	–	–	–	–	–	–	–	inhibited	70 µM
Nc1[nH]c(=O)nc2c1ncn2[C@@H]1O[C@H](CO)[C@@H](O)[C@H]1O [isoguanosine]	–	80 µM	–	–	–	–	–	–	–	inhibited	–
